{
  "source": "patent US20240262845A1",
  "about": "“PYRIDINIUM SALTS, METHODS OF MAKING, AND METHODS OF USE” (UNIVERSITY OF WYOMING, priority 2023, published 2024)",
  "key": {"[1]": {"system": "HEK293T cells", "assay": "In-situ chemoproteomic tryptophan profiling of live HEK293T cells", "format": "cell-based, human", "description": "Cell culture and in-situ tryptophan probe treatment: Cell lines were cultured at 37° C. with 5% CO2. Human embryonic kidney 293 cells expressing a mutant version of the SV40 large T antigen (HEKT293T cells) were grown in Dulbecco's Modified Eagle Medium (DMEM, Gibco) supplemented with 10% fetal bovine serum and 1% penicillin/streptomycin. For in-situ labeling, cells were grown to 90% confluence, washed with Dulbecco's phosphate buffered saline (DPBS), treated with 100× stocks of the tryptophan probes (the pyridinium salts) in OptiMem (GibCo) to generate final concentrations (0 μM, 1 μM, 10 μM, and 100 μM) in 1% dimethylsulfoxide (DMSO). Cells were incubated for 1 hour at 37° C. with 5% CO2 followed by photo-activation at the respective wavelengths for 20 minutes at 4° C. Cells were harvested with a cell scraper, washed 3× with DPBS, and pellets were stored at −80° C. until further use. The following light sources were used for photo-activation:\nIn-situ tryptophan probe sample processing for peptide-level characterization: Cell pellets were lysed via sonication (QSonica) at 50% amplitude, 2 seconds ON, 3 seconds OFF, 30 seconds in 40 mM HEPES pH 7.5 (4-(2-hydroxyethyl)-1-piperazineethanesulfonic acid), 1.5 mM magnesium chloride (MgCl2), 1% Sodium dodecyl sulfate (SDS), 0.8% NP-40 (also known as nonyl phenoxypolyethoxylethanol), and 1× protease inhibitors (Thermo). Protein concentration was determined by BCA (Pierce). 400 μg protein lysate were taken for copper-catalyzed azide-alkyne cycloaddition (CuAAC) reactions with 100 μM of the acid cleavable DAPBS Biotin Alkyne (Click Chemistry Tools), 250 μM copper sulfate (CuSO4), 500 μM BTTP (C20H34N10O2) (Click Chemistry Tools), and 2.5 mM ascorbate and incubated for 60 minutes at R.T. Samples were precipitated with methanol:chloroform and re-suspended in 50 mM HEPES pH 8.0 containing 1% RapiGest SF (Waters). The samples were reduced with 10 mM dithiothreitol (DTT) (Pierce) and alkylated with 25 mM iodoacetamide (Pierce). The samples were diluted down to 0.1% RapiGest SF and treated with 4 μg Trypsin/LysC (Promega) at 37° C. for 16 hours. The digested peptides were than labeled with isobaric tandem mass tag (TMT) reagents (Thermo) as specified by the manufacturer. The labeled peptides were then combined, concentrated to remove acetonitrile, and re-suspended in 50 mM HEPES pH 8.0 containing 0.2% SDS. […]\nQuantitative proteomics by two-dimensional nano liquid chromatography-tandem mass spectrometry (nLC-MS/MS): For protein-level characterization, the TMT-labeled sample were reconstituted in 0.1% formic acid (FA)/2% acetonitrile for offline high-pH reversed phase separation (RP10) using a Dionex UltiMate 3000 high-performance liquid chromatography (HPLC) system with fraction collection using Chromeleon v.6.8 (Thermo) software. […]"}, "[2]": {"target": "T1, lysozyme (Gallus gallus, UniProt P00698)", "T1 construct": "Lysozyme (from chicken egg white, >40,000 units/mg of protein); purchased Sigma Aldrich; host or cells: chicken egg white", "T1 sequence (P00698 19-147)": "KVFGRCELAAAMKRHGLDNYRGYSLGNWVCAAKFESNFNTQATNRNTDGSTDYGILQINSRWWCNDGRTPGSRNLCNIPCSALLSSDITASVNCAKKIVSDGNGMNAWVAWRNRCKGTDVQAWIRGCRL", "assay": "Photochemical labeling of lysozyme with pyridinium salts (General Procedure B, LC/MS)", "format": "biochemical, chicken", "conditions": "lysozyme labeling", "description": "General Procedure B: Photochemical Irradiation of Peptides and Proteins: To a 2 mL Pyrex LC/MS vial (Thermo model #03-391-39) were sequentially added solutions containing the desired biomolecule, glutathione (GSH), pyridinium salt, and ammonium acetate (NH4OAc). The resulting solution was diluted to a final volume of 500 μL and then sparged using nitrogen for a minimum of 30 minutes prior to irradiation. The actively sparging solution was then placed in an EvoluChem™ PhotoRedOx Box photoreactor that was equipped with a Kessil, PR160 427 nm LED Lamp and was then irradiated (100% lamp intensity) for the designated time at room temperature while maintaining active sparging. The resultant reaction mixture was then analyzed directly by LC/MS. Analysis of labeling outcomes using LC/MS was performed either by extracted ion chromatogram intensities (method A) or by integrating the area under the peaks associated with peptide content (method B). These values were totaled, and estimated percentages were assigned according to relative intensities of peaks or ion counts.\nLabeling of Lysozyme with Pyridinium Salt 2a (Lysozyme-2a Conjugate). Labeling of lysozyme (14.3 kDa) with the pyridinium salt 2a was performed by following general procedure B using the following solutions: lysozyme (27 μL, 182 μM, 10 μM final concentration), pyridinium salt 2a (200 μL, 500 μM, 200 μM final concentration), NH4OAc (100 μL, 100 mM, pH=6.9, 20 mM final concentration), glutathione (15 μL, 10 mM, 300 μM final concentration), and water (158 μL) with a 100% intensity irradiation time of 60 minutes. The reaction mixture was analyzed directly by LC/MS using method A and was estimated to have proceeded in >95% conversion and a 10.9:1 mono:di labeled ratio and 10% glutathionylation of all unlabeled and labeled protein content was observed.\nLabeling of Lysozyme with Pyridinium Salt 2b (Lysozyme-2b Conjugate). Labeling of lysozyme (14.3 kDa) with the pyridinium salt 2b was performed by following general procedure Busing the following solutions: lysozyme (19 μL, 262 μM, […]), 2b (181 μL, 554 μM, 200 μM final concentration), NH4OAc (50 μL, 200 mM, pH=6.9, 20 mM final concentration), glutathione (50 μL, 3 mM, 300 μM final concentration), and water (200 μL) with a 100% intensity irradiation time of 10 minutes. The reaction mixture was analyzed directly by LC/MS using method A and was estimated to have proceeded with 83% conversion. […]\nLabeling of Lysozyme with Pyridinium Salt 2c (Lysozyme-2c Conjugate). […] The reaction mixture was analyzed directly by LC/MS using method A and was estimated to have proceeded with 85% conversion and a 3.7:1 mono:di labeled ratio and 10% glutathionylation of all protein content was observed. […]"}},
  "note": "Where a name gives a salt, the structure may show the parent alone.",
  "data": [
    {"molecule": "COc1ccc2cc(-c3cc(C)[n+](N(C)C(=O)OCCCCCCN=[N+]=[N-])c(C)c3)ccc2c1", "note": "[pyridinium salt 2d, 1-((((6-azidohexyl)oxy)carbonyl)(methyl)amino)-4-(6-methoxynaphthalen-2-yl)-2,6-dimethylpyridin-1-ium tetrafluoroborate]", "values": [
      {"measurement": "Trp-modified peptide fragments detected showing dose response behavior", "setting": "[1]; about 100 μM probe, 60 min 37° C., 440 nm 20 min 4° C., peptide-level enrichment", "value": 290},
      {"measurement": "plasma membrane crossing / subcellular penetration", "setting": "[1]; subcellular localization of modified proteins (UniProt)", "value": "readily crosses the plasma membrane"},
      {"measurement": "selectivity for tryptophan", "setting": "[1]; taking relative amino acid frequency in human proteins into account, FIG. 19B", "value": "about 82%"},
      {"measurement": "Western validation of NPM1 and PARP1 in enriched protein mixtures", "setting": "[1]; varying concentrations, with and without blue light, protein-level enrichment", "value": "found to contain both proteins"},
      {"measurement": "labeling rate compared to pyridinium salt 2a", "setting": "[2]", "value": "enhance rates"}
    ]}
  ]
}
